Data from the NIST ThermoML archive (doi:10.1007/s10765-007-0151-9).
Values joined by “and” are separate entries in the source; they are usually repeats but may differ in a detail not shown here. Identical values can stand only once.

Conditions: 101.33 kPa, Liquid, Pulse-echo method

[Sn] [tin]
Conditions	speed of sound [m/s]
608 K	2470
804 K	2408
814 K	2416
919 K	2379
1012 K	2366
1025 K	2332
1218 K	2306
1453 K	2234
1463 K	2242

[Pb] [lead]
Conditions	speed of sound [m/s]
610 K	1834
626 K	1810.5
678 K	1790.3
703 K	1784
787 K	1769.8
814 K	1749
897 K	1729.8
1078 K	1688

[Si] [silicon]
Conditions	speed of sound [m/s]
1723 K	3916.1
1748 K	3929
1755 K	3945.9
1789 K	3973.3
1795 K	3969
1823 K	3976.3
1852 K	4003
1889 K	4020

[Ge] [germanium]
Conditions	speed of sound
1216 K	2690.9 m/s and 2689.9 m/s
1233 K	2690.8 m/s and 2691.1 m/s
1252 K	2689.5 m/s and 2696.2 m/s
1270 K	2692 m/s and 2695 m/s
1289 K	2690.8 m/s and 2700.4 m/s
1307 K	2690.6 m/s and 2695 m/s
1352 K	2673.6 m/s and 2678.4 m/s
1398 K	2662.8 m/s and 2666.3 m/s
1443 K	2652.5 m/s and 2654.4 m/s
